Assay results from US20240238220A1, “METHODS FOR TREATING CANCERS” (priority 2023, published 2024).

Key:
[1] = test system: lung cancer cells, A549, H1299, H1975, CL1-5, and PC-9; test: methylene blue dye assay, growth of lung cancer cells; format: cell-based; settings: Homo sapiens; range over A549, H1299, H1975, CL1-5, PC-9; treated 1-5 μM for 1, 2 or 3 days; read-out: IC50 values (50% inhibition of cell viability)
Excerpt: The effects of Compound A and Compound B on the growth of tumor cells were investigated in A549 (adenocarcinomic human alveolar epithelial cell), H1299 (human non-small cell lung carcinoma cell), H1975 (human non-small cell lung carcinoma cell), CL1-5 (human lung adenocarcinoma cell), and PC-9 (human lung adenocarcinoma cell) cell lines. A methylene blue dye assay (G. J. Finlay et al., Anal Biochem. 1984 June; 139(2):272-7) (11) was used to evaluate the inhibitory effect of Compound A and Compound B. Briefly, each of the cell lines with a logarithmic growth phase was cultured at a density of 2×10^4 to 4×10^4 cells per well in a 24-well plate, and treated with 1-5 μM of Compound A or Compound B for 1, 2, or 3 days. At the end of the incubation period, cells were fixed and stained with 0.5% methylene blue containing 50% ethanol for 30 minutes and then were washed and dried. The resulting colored residues were dissolved in 1% N-lauroyl-sarcosine, and optical density was read at 595 nm using a microplate reader. The IC50 value resulting from 50% inhibition of cell viability was calculated graphically as a comparison with vehicle control group. Each point represents the average of at least 3 independent experiments run in quadruple.

[2] = test system: TC-1 tumor (mouse lung epithelial cancer cells); test: mouse model bearing TC-1 tumor; format: in vivo, C57BL/6 mice; settings: oral gavage 120 mg/Kg/day, p<0.05
Experimental: (§1) The anti-tumor activity of Compound A was evaluated in the human NSCLC xenograft model. Nude mice and C57BL/6 mice were subcutaneously inoculated with H1299 (1×10^6) and mouse lung epithelial cancer cells, TC-1 (2×10^5), respectively. Tumor volumes were measured beginning on day 4 or 5 after tumor inoculation according to the relationship (L×D^2)/2, where L is the long dimension and D is the short dimension. The xenograft tumor-bearing mice were administered by oral gavage with compound A (dissolved in 10% dimethyl sulfoxide (DMSO)/cottonseed oil) at 120 mg/Kg/day for consecutive 5 days of the week. Animal body weight and tumor size were measured twice weekly. ANOVA followed by a multiple comparison Scheff test was conducted to determine significant differences among the treatment group at p<0.05.

[3] = test system: H1299 tumor; test: human NSCLC xenograft model bearing H1299 tumor; format: in vivo, Nude mice; settings: oral gavage 120 mg/Kg/day; for tumor regression: 5 consecutive days of the week
Experimental: as §1

| Structure (SMILES) | IC50 [1] | inhibitory activity on tumor [2] | inhibitory activity on tumor ([3]; H1299 tumor, p<0.05) | tumor regression ([3]; day 35) | tumor regression ([3]; day 50) |
| --- | --- | --- | --- | --- | --- |
| COc1ccc(/C=C/C(=O)C(CC2CCC2)C(=O)/C=C/c2ccc(OC)c(OC)c2)cc1OC [Compound B, 4-(cyclobutylmethyl)-1,7-bis(3,4-dimethoxyphenyl)hepta-1,6-diene-3,5-dione] | 2000 to 3300 nM |  |  |  |  |
| COc1ccc(/C=C/C(=O)C(F)(CC2CCC2)C(=O)/C=C/c2ccc(OC)c(OC)c2)cc1OC [Compound A, 4-fluoro-4-cyclobutylmethyl-1,7-bis(3,4-dimethoxyphenyl)hepta-1,6-diene-3,5-dione] | 1500 to 3000 nM | statistically significant inhibitory activity | statistically significant inhibitory activity | around 36% | around 43% |
